In ChEMBL document CHEMBL1132525, “Indolocarbazole poisons of human topoisomerase I: regioisomeric analogues of ED-110” (Bioorg Med Chem Lett, 1999) one finds IC50 data, which are given here for five molecules.

Where only a bound is given, the exact number is not on record here.

Assay [1] deals with DU-145. As to the kind of experiment: In vitro antitumor activity against human solid tumor prostate cell line DU-145. Format: functional, cell-based.
For assay [2], the system named is HT-29. As to the kind of experiment: In vitro antitumor activity against human solid tumor colon cell line HT-29. The format is functional, cell-based.
Assay [3] relates to OVCAR-3. As to the kind of experiment: In vitro antitumor activity against human solid tumor ovarian cell line OVCAR-3. Format: functional, cell-based.
Another assay has as its target T1, DNA topoisomerase 1 (Homo sapiens, UniProt P11387).
T1 sequence (P11387 whole entry): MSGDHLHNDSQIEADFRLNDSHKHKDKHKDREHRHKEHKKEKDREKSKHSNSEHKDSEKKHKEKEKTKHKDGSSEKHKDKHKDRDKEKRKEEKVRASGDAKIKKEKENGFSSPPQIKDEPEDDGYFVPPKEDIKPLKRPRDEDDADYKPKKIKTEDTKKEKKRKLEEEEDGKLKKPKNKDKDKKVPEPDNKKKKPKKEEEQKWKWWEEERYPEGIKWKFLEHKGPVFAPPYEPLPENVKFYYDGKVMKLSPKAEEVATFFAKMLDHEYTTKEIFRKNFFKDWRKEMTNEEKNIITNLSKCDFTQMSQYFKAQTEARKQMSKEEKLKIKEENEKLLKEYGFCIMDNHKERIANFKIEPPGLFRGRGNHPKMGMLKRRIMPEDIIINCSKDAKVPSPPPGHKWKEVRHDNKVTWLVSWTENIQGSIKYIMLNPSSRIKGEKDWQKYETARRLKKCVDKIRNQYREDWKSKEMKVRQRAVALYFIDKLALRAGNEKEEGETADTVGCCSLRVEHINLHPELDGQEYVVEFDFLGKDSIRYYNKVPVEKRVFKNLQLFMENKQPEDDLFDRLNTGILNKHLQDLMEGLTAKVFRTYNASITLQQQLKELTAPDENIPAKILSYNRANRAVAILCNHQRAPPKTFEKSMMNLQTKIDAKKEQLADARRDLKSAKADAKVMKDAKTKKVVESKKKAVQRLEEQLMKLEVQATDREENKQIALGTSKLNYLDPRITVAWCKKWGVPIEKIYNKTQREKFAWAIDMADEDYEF
As to the kind of experiment: Concentration required to inhibit human DNA topoisomerase I (Topo I).

Assay [4] deals with DU-145. As to the kind of experiment: In vitro antitumor activity against human solid tumor prostate cell line DU-145; No active. Format: functional, cell-based.
In assay [5] the test system is HT-29. As to the kind of experiment: In vitro antitumor activity against human solid tumor colon cell line HT-29; No active. The format is functional, cell-based.
Assay [6] relates to OVCAR-3. As to the kind of experiment: In vitro antitumor activity against human solid tumor ovarian cell line OVCAR-3; No active. The format is functional, cell-based.

With `O=C1NC(=O)c2c1c1c3cccc(O)c3[nH]c1c1c2c2cccc(O)c2n1C1OC(CO)C(O)C(O)C1O` (centres undefined), the IC50 is 2300 nM in the assay with DU-145 [1], above 10000 nM in the assay with HT-29 [2], 920 nM in the assay on OVCAR-3 [3] and 13000 nM on DNA topoisomerase 1.

Turning to `O=C1NC(=O)c2c1c1c3ccc(O)cc3[nH]c1c1c2c2ccc(O)cc2n1C1OC(CO)C(O)C(O)C1O` (centres undefined), the IC50 with DU-145 [1] is 120 nM; with HT-29 [2] it was 9700 nM; in the assay with OVCAR-3 [3] it was 190 nM; against DNA topoisomerase 1 it was 2300 nM.

For `O=C1NC(=O)C(c2cn(C3OC(CO)C(O)C(O)C3O)c3c(O)cccc23)=C1c1c[nH]c2c(O)cccc12` (centres undefined), the IC50 result with DU-145 [4], in the assay with HT-29 [5] and with OVCAR-3 [6] was “Not Active” throughout.

In the case of `O=C1NC(=O)c2c1c1c3cc(O)ccc3[nH]c1c1c2c2cc(O)ccc2n1C1OC(CO)C(O)C(O)C1O` (centres undefined), the concentration for half-maximal inhibition (IC50) turned out to be 67 nM with DU-145 [1], 840 nM in the assay with HT-29 [2], 190 nM in the assay with OVCAR-3 [3] and 1500 nM against DNA topoisomerase 1.

In the case of `O=C1NC(=O)c2c1c1c([nH]c3cccc(O)c31)c1c2c2c(O)cccc2n1C1OC(CO)C(O)C(O)C1O` (centres undefined), the IC50 came out at 950 nM with DU-145 [1], 1300 nM with HT-29 [2], 440 nM in the assay with OVCAR-3 [3] and 36000 nM at DNA topoisomerase 1.
